Measured values reported in ChEMBL document CHEMBL1201862, “PubChem BioAssay data set” (2004).
Calls of active or inactive are those of the source.

Experiments:
Format in all cases: functional
[1] = target: RAC-gamma serine/threonine-protein kinase (Homo sapiens, UniProt Q9Y243)
[2] = target: ALK tyrosine kinase receptor (Homo sapiens, UniProt Q9UM73);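 further: ALK tested as one member of a kinase panel screen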
[3] = target: Serine/threonine-protein kinase PLK4 (Homo sapiens, UniProt O00444);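 further: PLK4 measured as one member of a kinome-wide kinase profiling panel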
[4] = target: Serine/threonine-protein kinase D2 (Homo sapiens, UniProt Q9BZL6);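 further: measured against PRKD2 as one member of a kinome-wide kinase profiling panel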
[5] = target: Ribosomal protein S6 kinase beta-1 (Homo sapiens, UniProt P23443);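 further: measured as one member of a kinome-wide profiling panel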
[6] = target: Calcium/calmodulin-dependent protein kinase type II subunit gamma (Homo sapiens, UniProt Q13555)
[7] = target: Tyrosine-protein kinase SYK (Homo sapiens, UniProt P43405)
[8] = target: Serine/threonine-protein kinase D3 (Homo sapiens, UniProt O94806);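 further: determined within a kinase panel screen, with PRKCN as the panel member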
[9] = target: Serine/threonine-protein kinase 17A (Homo sapiens, UniProt Q9UEE5)
Activin receptor type-1 = Activin receptor type-1 (Homo sapiens, UniProt Q04771); assay: Navigating the Kinome. Panel member name: ACVR1
[10] = target: Cyclin-dependent kinase 2 (Homo sapiens, UniProt P24941);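 further: CDK2 measured as one member of a broad kinome profiling panel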
[11] = target: Serine/threonine-protein kinase pim-1 (Homo sapiens, UniProt P11309)
[12] = target: MAP kinase-activated protein kinase 2 (Homo sapiens, UniProt P49137);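 further: measured as one member of a kinome-wide kinase panel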
[13] = target: Serine/threonine-protein kinase PAK 4 (Homo sapiens, UniProt O96013);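 further: value obtained within a kinome profiling panel in which PAK4 was one of the panel members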
[14] = target: Serine/threonine-protein kinase PAK 1 (Homo sapiens, UniProt Q13153)
[15] = target: Calcium/calmodulin-dependent protein kinase type II subunit delta (Homo sapiens, UniProt Q13557)
[16] = target: Fibroblast growth factor receptor 1 (Homo sapiens, UniProt P11362)
[17] = target: Casein kinase I isoform alpha (Homo sapiens, UniProt P48729)
[18] = target: Tyrosine-protein kinase JAK3 (Homo sapiens, UniProt P52333)
[19] = target: Casein kinase I isoform gamma-1 (Homo sapiens, UniProt Q9HCP0);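 further: measured as the CSNK1G1 member of a kinome profiling panel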
[20] = target: Serine/threonine-protein kinase TAO1 (Homo sapiens, UniProt Q7L7X3)
Insulin receptor = Insulin receptor (Homo sapiens, UniProt P06213);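 further: insulin receptor kinase tested as one member of a kinome-wide kinase panel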
[21] = target: Mitogen-activated protein kinase 13 (Homo sapiens, UniProt O15264)
[22] = target: Mitogen-activated protein kinase kinase kinase 20 (Homo sapiens, UniProt Q9NYL2)
[23] = target: Protein kinase C gamma type (Homo sapiens, UniProt P05129)
[24] = target: MAP kinase-activated protein kinase 3 (Homo sapiens, UniProt Q16644);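 further: value comes from a kinome-wide profiling panel in which MAPKAPK3 is one of the panel members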
[25] = target: Cyclin-dependent kinase 5 (Homo sapiens, UniProt Q00535);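 further: CDK5 measured as one member of a kinase profiling panel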
[26] = target: Mitogen-activated protein kinase 1 (Homo sapiens, UniProt P28482)
Misshapen-like kinase 1 = Misshapen-like kinase 1 (Homo sapiens, UniProt Q8N4C8);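 further: kinome panel screen with MINK as the panel member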
[27] = target: Dual specificity tyrosine-phosphorylation-regulated kinase 4 (Homo sapiens, UniProt Q9NR20)
[28] = target: Protein kinase C iota type (Homo sapiens, UniProt P41743);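 further: measured within a kinome-wide kinase panel, PRKCI as panel member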
Aurora kinase B = Aurora kinase B (Homo sapiens, UniProt Q96GD4)
[29] = target: RAC-alpha serine/threonine-protein kinase (Homo sapiens, UniProt P31749);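 further: AKT1 affinity measured as one member of a kinome-wide kinase profiling panel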
[30] = target: Vascular endothelial growth factor receptor 3 (Homo sapiens, UniProt P35916);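 further: value from a kinome-wide profiling panel, with FLT4 as the panel member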
[31] = target: Homeodomain-interacting protein kinase 4 (Homo sapiens, UniProt Q8NE63)
[32] = target: Cyclin-dependent kinase 1 (Homo sapiens, UniProt P06493);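 further: Kinome-wide panel profiling, with the target listed as panel member CDC2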
[33] = target: Serine/threonine-protein kinase DCLK1 (Homo sapiens, UniProt O15075);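 further: affinity for DCLK1 (listed as DCAMKL1) measured as one member of a kinome-wide kinase profiling panel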
[34] = target: Serine/threonine-protein kinase Nek2 (Homo sapiens, UniProt P51955)
[35] = target: Cyclin-dependent kinase 7 (Homo sapiens, UniProt P50613);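 further: value comes from a kinome-wide kinase profiling panel in which CDK7 is one member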
[36] = target: STE20-like serine/threonine-protein kinase (Homo sapiens, UniProt Q9H2G2)
[37] = target: Serine/threonine-protein kinase PLK1 (Homo sapiens, UniProt P53350);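 further: PLK1 measured as one member of a kinome-wide profiling panel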
[38] = target: cAMP-dependent protein kinase catalytic subunit alpha (Homo sapiens, UniProt P17612)
[39] = target: Mitogen-activated protein kinase 12 (Homo sapiens, UniProt P53778);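 further: measured as one member of a kinome-wide kinase profiling panel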
[40] = target: Lymphokine-activated killer T-cell-originated protein kinase (Homo sapiens, UniProt Q96KB5);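 further: value comes from a kinase panel screen in which TOPK was one of the panel members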
[41] = target: Serine/threonine-protein kinase BRSK1 (Homo sapiens, UniProt Q8TDC3);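 further: measured within a kinome-wide kinase panel, with the target listed as KIAA1811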
[42] = target: Calcium/calmodulin-dependent protein kinase type II subunit alpha (Homo sapiens, UniProt Q9UQM7); assay: Navigating the Kinome. Panel member name: CAMK2A
[43] = target: Serine/threonine-protein kinase 3 (Homo sapiens, UniProt Q13188);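 further: measured as one member of a kinome-wide kinase panel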

Cyclin-dependent kinase 7, sequence (P50613 whole entry): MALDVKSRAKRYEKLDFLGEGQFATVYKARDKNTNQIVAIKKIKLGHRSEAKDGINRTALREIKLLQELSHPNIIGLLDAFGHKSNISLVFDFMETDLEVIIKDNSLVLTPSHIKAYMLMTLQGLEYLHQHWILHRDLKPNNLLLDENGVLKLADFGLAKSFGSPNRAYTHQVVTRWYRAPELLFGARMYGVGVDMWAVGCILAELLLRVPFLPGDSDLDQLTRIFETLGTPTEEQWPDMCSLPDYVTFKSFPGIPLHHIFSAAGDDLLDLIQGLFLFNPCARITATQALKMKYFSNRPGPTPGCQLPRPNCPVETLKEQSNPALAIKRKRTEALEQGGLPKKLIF
Activin receptor type-1, sequence (Q04771 whole entry): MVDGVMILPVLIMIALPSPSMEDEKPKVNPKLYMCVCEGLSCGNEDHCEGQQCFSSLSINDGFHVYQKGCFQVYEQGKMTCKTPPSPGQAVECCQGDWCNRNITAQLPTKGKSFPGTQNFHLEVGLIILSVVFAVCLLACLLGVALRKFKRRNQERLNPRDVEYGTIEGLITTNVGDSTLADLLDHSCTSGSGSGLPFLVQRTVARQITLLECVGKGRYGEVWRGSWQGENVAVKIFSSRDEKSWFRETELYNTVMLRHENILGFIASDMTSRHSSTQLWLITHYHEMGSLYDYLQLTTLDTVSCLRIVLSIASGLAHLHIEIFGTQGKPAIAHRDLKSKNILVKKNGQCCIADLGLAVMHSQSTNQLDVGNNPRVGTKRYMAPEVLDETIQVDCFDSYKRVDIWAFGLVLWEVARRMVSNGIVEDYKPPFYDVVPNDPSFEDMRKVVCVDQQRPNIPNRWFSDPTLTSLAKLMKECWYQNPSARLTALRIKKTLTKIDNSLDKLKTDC
MAP kinase-activated protein kinase 3, sequence (Q16644 whole entry): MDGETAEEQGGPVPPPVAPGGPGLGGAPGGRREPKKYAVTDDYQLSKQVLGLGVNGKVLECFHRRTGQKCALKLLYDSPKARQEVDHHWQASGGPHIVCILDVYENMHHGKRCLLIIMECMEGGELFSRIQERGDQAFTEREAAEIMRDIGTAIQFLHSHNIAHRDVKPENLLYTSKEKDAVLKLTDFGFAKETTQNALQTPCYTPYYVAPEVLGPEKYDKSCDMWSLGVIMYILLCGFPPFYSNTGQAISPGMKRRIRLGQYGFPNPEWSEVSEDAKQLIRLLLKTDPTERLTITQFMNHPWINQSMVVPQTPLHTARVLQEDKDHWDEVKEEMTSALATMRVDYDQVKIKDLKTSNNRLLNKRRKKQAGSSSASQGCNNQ
Serine/threonine-protein kinase BRSK1, sequence (Q8TDC3 whole entry): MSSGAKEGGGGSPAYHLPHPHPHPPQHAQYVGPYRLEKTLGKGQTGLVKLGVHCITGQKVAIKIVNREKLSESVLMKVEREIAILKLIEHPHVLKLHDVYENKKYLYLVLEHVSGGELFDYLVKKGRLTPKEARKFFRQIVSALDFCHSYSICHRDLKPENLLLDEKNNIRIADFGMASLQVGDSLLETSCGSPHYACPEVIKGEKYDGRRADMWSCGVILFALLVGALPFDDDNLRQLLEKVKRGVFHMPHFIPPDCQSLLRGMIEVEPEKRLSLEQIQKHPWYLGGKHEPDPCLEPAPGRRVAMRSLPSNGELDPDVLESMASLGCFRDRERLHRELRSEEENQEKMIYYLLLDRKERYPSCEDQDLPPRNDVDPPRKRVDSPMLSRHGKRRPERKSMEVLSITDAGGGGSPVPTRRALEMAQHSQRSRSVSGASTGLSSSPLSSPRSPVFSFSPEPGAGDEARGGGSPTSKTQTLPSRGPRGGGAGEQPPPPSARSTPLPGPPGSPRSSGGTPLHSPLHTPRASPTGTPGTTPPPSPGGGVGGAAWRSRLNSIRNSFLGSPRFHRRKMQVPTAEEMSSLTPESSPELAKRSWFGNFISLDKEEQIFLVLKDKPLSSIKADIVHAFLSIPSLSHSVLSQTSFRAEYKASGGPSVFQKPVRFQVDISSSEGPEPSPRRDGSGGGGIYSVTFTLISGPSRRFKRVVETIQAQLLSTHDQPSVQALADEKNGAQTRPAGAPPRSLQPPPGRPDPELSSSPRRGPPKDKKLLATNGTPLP
Lymphokine-activated killer T-cell-originated protein kinase, sequence (Q96KB5 whole entry): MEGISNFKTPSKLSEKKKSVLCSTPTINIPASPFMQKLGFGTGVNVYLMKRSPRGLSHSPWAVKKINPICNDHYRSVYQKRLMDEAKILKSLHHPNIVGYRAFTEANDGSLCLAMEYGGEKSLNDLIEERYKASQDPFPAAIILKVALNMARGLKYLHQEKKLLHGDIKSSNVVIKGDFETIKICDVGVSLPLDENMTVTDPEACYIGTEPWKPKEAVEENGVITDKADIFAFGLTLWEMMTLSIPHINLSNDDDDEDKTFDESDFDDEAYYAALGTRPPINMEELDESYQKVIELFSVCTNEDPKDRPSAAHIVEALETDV
ALK tyrosine kinase receptor, sequence (Q9UM73 whole entry): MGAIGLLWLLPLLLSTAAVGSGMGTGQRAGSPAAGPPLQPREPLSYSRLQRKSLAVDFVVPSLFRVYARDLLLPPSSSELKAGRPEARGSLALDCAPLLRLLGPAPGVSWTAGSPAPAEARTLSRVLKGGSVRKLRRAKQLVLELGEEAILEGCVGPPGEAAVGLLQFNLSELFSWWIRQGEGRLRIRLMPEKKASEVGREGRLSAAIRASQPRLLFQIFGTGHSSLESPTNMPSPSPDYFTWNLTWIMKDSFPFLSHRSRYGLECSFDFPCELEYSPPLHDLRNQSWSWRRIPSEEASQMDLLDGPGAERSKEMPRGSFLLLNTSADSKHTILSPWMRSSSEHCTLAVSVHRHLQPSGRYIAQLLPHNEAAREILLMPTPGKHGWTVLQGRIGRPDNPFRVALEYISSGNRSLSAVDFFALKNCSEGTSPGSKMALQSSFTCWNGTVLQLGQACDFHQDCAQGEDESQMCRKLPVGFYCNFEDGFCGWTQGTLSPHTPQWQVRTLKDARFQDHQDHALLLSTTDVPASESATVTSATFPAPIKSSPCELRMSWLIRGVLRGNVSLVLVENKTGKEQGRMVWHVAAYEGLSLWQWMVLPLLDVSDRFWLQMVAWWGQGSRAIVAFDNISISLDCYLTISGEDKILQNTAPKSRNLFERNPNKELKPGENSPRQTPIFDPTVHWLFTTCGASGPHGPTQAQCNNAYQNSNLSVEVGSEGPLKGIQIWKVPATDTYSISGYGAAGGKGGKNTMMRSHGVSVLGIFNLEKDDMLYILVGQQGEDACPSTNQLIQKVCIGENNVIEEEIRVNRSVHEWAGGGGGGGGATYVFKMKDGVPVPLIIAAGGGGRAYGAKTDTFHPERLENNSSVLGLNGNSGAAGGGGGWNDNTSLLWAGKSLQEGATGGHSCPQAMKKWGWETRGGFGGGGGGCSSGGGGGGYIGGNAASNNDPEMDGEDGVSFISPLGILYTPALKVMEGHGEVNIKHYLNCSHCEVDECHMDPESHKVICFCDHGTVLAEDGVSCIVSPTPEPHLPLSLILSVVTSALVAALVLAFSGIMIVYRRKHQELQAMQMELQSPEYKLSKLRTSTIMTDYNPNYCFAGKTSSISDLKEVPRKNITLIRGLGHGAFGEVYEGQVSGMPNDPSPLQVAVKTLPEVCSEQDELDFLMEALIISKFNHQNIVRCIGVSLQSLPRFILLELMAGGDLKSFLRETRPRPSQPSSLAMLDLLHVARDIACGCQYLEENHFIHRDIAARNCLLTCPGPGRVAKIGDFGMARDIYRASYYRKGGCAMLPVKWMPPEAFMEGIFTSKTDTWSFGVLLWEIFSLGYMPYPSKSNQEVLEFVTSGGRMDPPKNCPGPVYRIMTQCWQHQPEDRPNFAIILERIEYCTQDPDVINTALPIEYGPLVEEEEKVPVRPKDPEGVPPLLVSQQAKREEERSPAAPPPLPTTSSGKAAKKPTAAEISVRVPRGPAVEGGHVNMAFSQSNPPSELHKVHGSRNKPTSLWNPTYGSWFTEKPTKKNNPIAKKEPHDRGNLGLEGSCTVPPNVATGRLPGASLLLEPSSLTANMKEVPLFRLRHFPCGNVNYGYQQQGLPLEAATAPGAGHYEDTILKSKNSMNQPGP
Casein kinase I isoform alpha, sequence (P48729 whole entry, canonical isoform): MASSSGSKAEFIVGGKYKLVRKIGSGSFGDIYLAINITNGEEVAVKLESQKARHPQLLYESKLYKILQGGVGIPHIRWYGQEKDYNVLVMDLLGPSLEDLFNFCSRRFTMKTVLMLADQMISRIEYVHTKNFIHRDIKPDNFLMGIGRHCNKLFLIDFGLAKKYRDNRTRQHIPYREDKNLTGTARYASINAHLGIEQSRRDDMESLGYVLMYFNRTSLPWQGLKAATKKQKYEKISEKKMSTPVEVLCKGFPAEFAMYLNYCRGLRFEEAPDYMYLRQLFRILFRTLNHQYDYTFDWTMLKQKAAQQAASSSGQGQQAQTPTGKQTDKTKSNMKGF

- Ki [1]: > 10 µM (inactive)
- Ki [2]: > 6.31 µM (inactive)
- Ki [3]: > 3.98 µM (inactive)
- Ki [4]: > 10 µM (inactive)
- Ki [5]: > 6.31 µM (inactive)
- Ki [6]: > 6.31 µM (inactive)
- Ki [7]: 398 nM (active)
- Ki [8]: > 6.31 µM (inactive)
- Ki [9]: > 3.98 µM (inactive)
- Ki (Activin receptor type-1): > 3.98 µM (inactive)
- Ki [10]: > 7.94 µM (inactive)
- Ki [11]: > 6.31 µM (inactive)
- Ki [12]: > 7.94 µM (inactive)
- Ki [13]: > 5.01 µM (inactive)
- Ki [14]: > 10 µM (inactive)
- Ki [15]: > 6.31 µM (inactive)
- Ki [16]: > 3.98 µM (inactive)
- Ki [17]: > 5.01 µM (inactive)
- Ki [18]: > 5.01 µM (inactive)
- Ki [19]: > 6.31 µM (inactive)
- Ki [20]: > 5.01 µM (inactive)
- Ki (Insulin receptor): > 5.01 µM (inactive)
- Ki [21]: > 7.94 µM (inactive)
- Ki [22]: > 7.94 µM (inactive)
- Ki [23]: > 7.94 µM (inactive)
- Ki [24]: > 10 µM (inactive)
- Ki [25]: > 6.31 µM (inactive)
- Ki [26]: > 7.94 µM (inactive)
- Ki (Misshapen-like kinase 1): > 7.94 µM (inactive)
- Ki [27]: > 7.94 µM (inactive)
- Ki [28]: > 5.01 µM (inactive)
- Ki (Aurora kinase B): > 6.31 µM (inactive)
- Ki [29]: > 7.94 µM (inactive)
- Ki [30]: > 6.31 µM (inactive)
- Ki [31]: > 7.94 µM (inactive)
- Ki [32]: > 7.94 µM (inactive)
- Ki [33]: > 10 µM (inactive)
- Ki [34]: > 10 µM (inactive)
- Ki [35]: > 3.98 µM (inactive)
- Ki [36]: > 10 µM (inactive)
- Ki [37]: > 7.94 µM (inactive)
- Ki [38]: > 3.98 µM (inactive)
- Ki [39]: > 6.31 µM (inactive)
- Ki [41]: 7.94 µM (active)
- Ki [42]: > 7.94 µM (inactive)
- Ki [43]: > 7.94 µM (inactive)
Structure (SMILES): NNc1cc(N2CCOCC2)nc(OCCc2ccccn2)n1
- Ki [40]: > 10 µM (inactive)
